Reference: article PMC7866984, “Molecular Structure, In Vitro Anticancer Study and Molecular Docking of New Phosphate Derivatives of Betulin” (Molecules, 2021)
Where two headings read alike, the source gives them in different places.

Experiments:
[1] = system: amelanotic melanoma (C-32) cells; settings: cited from earlier work
breast cancer T47D cells [2] = settings: cited from earlier work
[3] = system: glioblastoma (SNB-19) cells; settings: cited from earlier work
[4] = system: breast cancer MDA-MB-231 cells; experiment: WST-1 cell viability assay, MDA-MB-231; assay type: cell-based, human; settings: Homo sapiens, MDA-MB-231, 72 h, read-out: IC50 ± SD, MDA-MB-231
Description: (§1) Evaluation of the effect of new betulin derivatives on the viability of the cultured cells was performed using the WST-1(water soluble tetrazolium salt) assay. Betulin 1 and cisplatin were used as the reference compounds.
(§2) The synthesized compounds and references were tested for cytotoxic activity in vitro against human cancer cell lines such as amelanotic melanoma (C-32, ATCC, Rockville, MD, USA), glioblastoma (SNB-19, DSMZ, Braunschweig, Germany), and breast cancer (T47D, and MDA-MB-231, ATCC, Rockville, MD, USA). Cell cultures were maintained using DMEM (Lonza, Basel, Switzerland) supplemented with 10% fetal bovine serum (FBS) (Biological Industries Cromwell, CT, USA) and penicillin (10,000 U/mL) –streptomycin (10 mg/mL) mix (Lonza, Basel, Switzerland).
(§3) Cultures were performed in 96-well plates (Nunc Thermo Fisher Scientific, Waltham, MA, USA). Cells were seeded at 5 × 10^4/well and incubated for 24 h (at 37 °C, 5% CO2, constant humidity). Then, the medium was replaced with a fresh one with the addition of test compounds in the concentration: 25; 12.5; 6.25; 3.12; 1.56; 0.78; 0.39; 0 µg/mL and incubated again for a further 72 h. After this time, the WST-1 test (Roche Molecular Biochemicals, Mannheim, Germany) was performed to assess the metabolic activity of the cells. The principle of the WST-1 colorimetric test is based on the ability of live cells to decompose bright red tetrazole salts of WST-1 to dark red formazan. The reaction is mediated by mitochondrial dehydrogenases and correlates with the number of cells and their metabolic activity. The absorbance was measured at λ = 450 nm with a UVM340 microplate reader (Biogenet, Józefów, Poland). Results were expressed as a mean value of at least three independent experiments performed in triplicate.

breast cancer T47D cells [5] = experiment: WST-1 cell viability assay, T47D; assay type: cell-based, human; settings: Homo sapiens, T47D, 72 h, read-out: IC50 ± SD, T47D
Description: as §1, §2, §3

[6] = system: glioblastoma (SNB-19) cells; experiment: WST-1 cell viability assay, SNB-19; assay type: cell-based, human; settings: WST-1, 72 h, read-out: IC50 ± SD, SNB-19
Description: as §1, §2, §3

[7] = system: amelanotic melanoma (C-32) cells; experiment: WST-1 cell viability assay, C-32; assay type: cell-based, human; settings: WST-1, 72 h, read-out: IC50 ± SD, C-32
Description: as §1, §2, §3

[8] = RP-TLC experimental lipophilicity; assay type: physicochemical; settings: for RM0 / logPTLC: RP-TLC; for RM0: acetone/Tris buffer pH 7.4, extrapolated to zero acetone; for logPTLC: from RM0 by calibration equation; for -b: slope of regression plot RM = RM0 + bC
Text: Lipophilicity is an important physicochemical parameter related to the biological activity of compounds. This descriptor, contained in Lipiński’s rule of five, concerns the transport of a compound through the biological membrane system and the formation of a compound–receptor complex. To assess the lipophilic nature of triterpenoids 3–5, 6a–6e, and 7a–7e, the reverse phase chromatography (RP-TLC) method was used (chromatographic procedure by RP-TLC is included in the Supplementary Materials). The theoretical characteristics of the chromatographic parameters (RM0, log PTLC) of the tested derivatives were also performed. […]
Chromatographic procedure by RP-TLC
The experimental lipophilicity parameters was determined using reversed-phase thin-layer chromatography (RP-TLC). The stationary phase was an aluminium backed silica gel RP-18 F254 S plates (Merck, Darmstadt, Germany). Chloroform solutions of reference compounds […]
(acetanilide, 4-bromoacetophenone, benzophenone, anthracene, DDT) and triterpenes 3-5, 6a-6e and 7a-7e were spotted on to the plates in the amount of 2 µL. The chromatograms were performed in triplicate for each compound. The chromatographic chambers were filled of mobile phases consisting of a mixture of acetone (POCh, Gliwice, Poland) and aqueous solution of buffer Tris [(tris-hydroxymethyl)aminomethane] (Fluka, Loughborough, 0.2 M, pH 7.4). The percent acetone volume was varied within the range of 90-60%, in 5% increments. The spots of compounds were visualized by spraying the plates with 10% ethanolic solution of sulphuric acid (VI) and heating for 3 min at 110°C [60]]. The RM values were calculated by the equation RM = log (1/Rf-1) on the basis of average Rf values. The RM0 parameters were obtained by extrapolating on the acetone content to zero, according to the equation RM = RM0 + bC (C – the percentage concentration of acetone in the mobile phase, b – the slope of the regression plot).
The experimental lipophilicity as log PTLC for triterpenes 3-5, 6a-6e and 7a-7e was calculated […]
obtained on the correlation between the literature log Plit values and the experimental RM0 values […]
Table S5. The theoretical values of lipophilicity for tested compounds 3-5, 6a-6e and 7a- […]
Table S6. The correlation matrix for theoretically obtained lipophilicity parameters of compounds 3-5, 6a-6e and 7a-7e. […]

[9] = system: TP53 mRNA in SNB-19 and C-32 cells; experiment: qRT-PCR expression of TP53; assay type: cell-based, human; settings: 24 h, half of IC50
Description: (§4) In our work, we assessed the influence of the tested compounds on the expression of selected genes related to apoptosis. […] We examined their influence on the transcriptional activity of genes encoding a proliferation marker (histone H3), a cell cycle regulator (p53), and proteins related to the mitochondrial apoptosis pathway (BCL-2 and BAX). The study was performed after 24-h exposure of the cultured cells to the test compounds (half of IC50).
(§5) The influence of tested compounds on the transcriptional activity of cells of the genes H3, TP53, BCL-2, and BAX was investigated. Assays were performed by real-time qRT-PCR on an Opticon TM DNA Engine (MJ Research, USA) using the QuantTect® SYBR® Green qRT-PCR Kit (Qiagen, Valencia, […]). Cells were exposed to compound 7a and 7b for 24 h at a concentration equal to half of IC50 for appropriate cell line. For the reference compound, cisplatin, concentrations were 0.8 µg/mL (SNB-19 line) and 0.6 µg/mL (C-32 line). RNA extraction was performed on spin columns using the Quick RNATM MiniPrep kit (Zymo Research, Irvine, CA, USA). RNA extracts were assessed qualitatively and quantitatively. Total RNA integrity was checked electrophoretically on a 1.2% agarose gel with ethidium bromide. The amount and purity of total RNA in the extracts were determined spectrophotometrically with the HP8452A spectrophotometer (Hewlett Packard, Waldbronn, Germany).

[10] = system: histone H3 mRNA in SNB-19 and C-32 cells; experiment: qRT-PCR expression of H3; assay type: cell-based, human; settings: 24 h, half of IC50
Description: as §4, §5

[11] = system: BAX/BCL-2 mRNA in SNB-19 and C-32 cells; experiment: qRT-PCR BAX/BCL-2 ratio; assay type: cell-based, human; settings: 24 h, half of IC50
Description: as §4, §5

SMILES | IC50 [1] [µM] | IC50 (breast cancer T47D cells [2]) [µM] | IC50 [3] [µM] | melting point [°C] | IC50 [4] [µM] | IC50 (breast cancer T47D cells [5]) [µM] | IC50 ([6]; Homo sapiens, SNB-19, 72 h) [µM] | IC50 ([7]; Homo sapiens, C32, 72 h) [µM] | RM0 [8] | logPTLC [8] | -b [8] | number of mRNA copies of TP53 [9] | number of mRNA copies of histone H3 gene vs control [10] | mRNA copy number BAX to BCL-2 ratio [11] | IC50 [6] [µM] | IC50 [7] [µM]
C#CC(=O)OC[C@]12CC[C@@H](C(=C)C)[C@@H]1[C@H]1CC[C@@H]3[C@@]4(C)CC[C@H](O)C(C)(C)[C@@H]4CC[C@@]3(C)[C@]1(C)CC2 [28-O-propynoylbetulin] | 16.7 | 111 | 4.2 | – | – | – | – | – | – | – | – | – | – | – | – | –
C=C(COP(=O)(OCC)OCC)[C@@H]1CC[C@]2(COC(=O)C#CC)CC[C@]3(C)C(CCC4[C@@]5(C)CC[C@H](OC(=O)C#CC)C(C)(C)C5CC[C@]43C)C12 (stereo partly drawn) [Compound 6b, 3,28-Di(2-butynoyl)-30-diethoxyphosphoryloxybetulin] | – | – | – | 66 to 70 | 21.2 ± 1.24 | > 50 | 4.65 ± 0.51 | > 50 | 6.884 | 8.917 | 0.078 | – | – | – | – | –
C=C(COP(=O)(OCC)OCC)[C@@H]1CC[C@]2(COC(=O)C#CC3CC3)CC[C@]3(C)C(CCC4[C@@]5(C)CC[C@H](OC(=O)C#CC6CC6)C(C)(C)C5CC[C@]43C)C12 (stereo partly drawn) [Compound 6c, 3,28-Di(2-cyclopropylpropynoyl)-30-diethoxyphosphoryloxybetulin] | – | – | – | 67 to 70 | > 50 | > 50 | > 50 | > 50 | 6.419 | 8.330 | 0.071 | – | – | – | – | –
C=C(COP(=O)(OCC)OCC)[C@@H]1CC[C@]2(COC(=O)C#Cc3ccccc3)CC[C@]3(C)C(CCC4[C@@]5(C)CC[C@H](OC(=O)C#Cc6ccccc6)C(C)(C)C5CC[C@]43C)C12 (stereo partly drawn) [Compound 6d, 30-Diethoxyphosphoryloxy-3,28-di(2-phenylpropynoyl)betulin] | – | – | – | 89 to 91 | > 50 | > 50 | 11.2 ± 0.28 | 31.5 ± 1.56 | 7.877 | 10.174 | 0.086 | – | – | – | – | –
C#CC(=O)OC[C@]12CC[C@@H](C(=C)COP(=O)(OCC)OCC)C1C1CCC3[C@@]4(C)CC[C@H](O)C(C)(C)C4CC[C@@]3(C)[C@]1(C)CC2 (stereo partly drawn) [Compound 7a, 30-Diethoxyphosphoryloxy-28-propynoylbetulin] | – | – | – | 177 to 180 | 6.2 ± 0.22 | 2.61 ± 0.42 | 0.91 ± 0.09 | 2.15 ± 0.22 | 5.318 | 6.937 | 0.062 | increase the number of mRNA copies of TP53 | reduced the number of mRNA copies of the histone H3 gene | increased the mRNA copy number to BAX and BCL-2 ratio | – | –
C=C(COP(=O)(OCC)OCC)[C@@H]1CC[C@]2(COC(=O)C#CC)CC[C@]3(C)C(CCC4[C@@]5(C)CC[C@H](O)C(C)(C)C5CC[C@]43C)C12 (stereo partly drawn) [Compound 7b, 28-(2-Butynoyl)-30-diethoxyphosphoryloxybetulin] | – | – | – | 133 to 136 | 4.93 ± 0.44 | 15.4 ± 0.51 | 0.8 | 0.76 | 5.431 | – | 0.063 | increase the number of mRNA copies of TP53 | reduced the number of mRNA copies of the histone H3 gene | increased the mRNA copy number to BAX and BCL-2 ratio | 0.76 ± 0.14 | 0.8 ± 0.03
C=C(COP(=O)(OCC)OCC)[C@@H]1CC[C@]2(COC(=O)C#CC3CC3)CC[C@]3(C)C(CCC4[C@@]5(C)CC[C@H](O)C(C)(C)C5CC[C@]43C)C12 (stereo partly drawn) [Compound 7c, 28-(2-Cyclopropylpropynoyl)-30-diethoxyphosphoryloxybetulin] | – | – | – | 133 to 134 | 9.11 ± 0.39 | > 50 | 6.29 ± 0.12 | 11.9 ± 0.52 | 5.587 | 7.277 | 0.064 | – | – | – | – | –
C=C(COP(=O)(OCC)OCC)[C@@H]1CC[C@]2(COC(=O)C#Cc3ccccc3)CC[C@]3(C)C(CCC4[C@@]5(C)CC[C@H](O)C(C)(C)C5CC[C@]43C)C12 (stereo partly drawn) [Compound 7d, 30-Diethoxyphosphoryloxy-28-(2-phenylpropynoyl)betulin] | – | – | – | 131 to 134 | > 50 | 9.47 ± 0.03 | 4.38 ± 0.04 | 6.9 ± 0.4 | 6.145 | 7.982 | 0.070 | – | – | – | – | –
